{"source": "patent US20260130928A1", "about": "“COMBINATION OF AKR1C3 ACTIVATED ANTICANCER PRODRUG COMPOUND AND ANALGESIC DRUG FOR TREATING CANCER PATIENTS ACCOMPANIED BY PAIN” (ASCENTAWITS PHARMACEUTICALS, LTD., priority 2022, published 2026)", "origin": "cited, not measured here", "key": {"AKR1C3": {"tested_on": "AKR1C3", "settings": "reported in literature; cited from earlier work"}, "[1]": {"settings": "cited from earlier work; for AUC0-t / Cmax / T1/2 / Tmax: patients, mean"}, "[2]": {"settings": "OBI-3424 dose level 1 mg/m^2, infusion"}, "[3]": {"settings": "OBI-3424 dose level 2 mg/m^2, infusion"}, "[4]": {"settings": "OBI-3424 dose level 4 mg/m^2, infusion"}, "[5]": {"settings": "OBI-3424 dose level 6 mg/m^2, infusion"}, "[6]": {"settings": "OBI-3424 dose level 8 mg/m^2, infusion"}, "[7]": {"settings": "OBI-3424 dose level 10 mg/m^2, infusion"}, "[8]": {"settings": "OBI-3424 dose level 12 mg/m^2, infusion"}, "[9]": {"settings": "OBI-3424 dose level 14 mg/m^2, infusion"}}, "note": "Like-named read-outs stand apart in the source and are kept apart here."}
{"smiles": "CC(=O)Oc1ccccc1C(=O)O", "note": "[Aspirin]", "values": [{"measurement": "AKR1C3 inhibitory activity", "setting": "AKR1C3", "result": "have AKR1C3 inhibitory activity"}]}
{"smiles": "O=C(O)Cc1ccccc1Nc1c(Cl)cccc1Cl", "note": "[Diclofenac]", "values": [{"measurement": "AKR1C3 inhibitory activity", "setting": "AKR1C3", "result": "have AKR1C3 inhibitory activity"}]}
{"smiles": "CC(C(=O)O)c1cccc(Oc2ccccc2)c1", "note": "(stereo not drawn) [Fenoprofen]", "values": [{"measurement": "AKR1C3 inhibitory activity", "setting": "AKR1C3", "result": "have AKR1C3 inhibitory activity"}]}
{"smiles": "CC(C(=O)O)c1ccc(-c2ccccc2)c(F)c1", "note": "(stereo not drawn) [Flurbiprofen]", "values": [{"measurement": "AKR1C3 inhibitory activity", "setting": "AKR1C3", "result": "have AKR1C3 inhibitory activity"}]}
{"smiles": "COc1ccc2c(c1)c(CC(=O)O)c(C)n2C(=O)c1ccc(Cl)cc1", "note": "[Indomethacin]", "values": [{"measurement": "AKR1C3 inhibitory activity", "setting": "AKR1C3", "result": "has AKR1C3 inhibitory activity"}]}
{"smiles": "Cc1ccc(Cl)c(Nc2ccccc2C(=O)O)c1Cl", "note": "[Meclofenamic Acid]", "values": [{"measurement": "AKR1C3 inhibitory activity", "setting": "AKR1C3", "result": "have AKR1C3 inhibitory activity"}]}
{"smiles": "Cc1cccc(Nc2ccccc2C(=O)O)c1C", "note": "[Mefenamic acid]", "values": [{"measurement": "AKR1C3 inhibitory activity", "setting": "AKR1C3", "result": "have AKR1C3 inhibitory activity"}]}
{"smiles": "O=P(O)(N1CC1)N1CC1", "note": "[OBI-2660]", "values": [{"measurement": "AUC0-t", "setting": "[1]; [2]", "result": 7.30, "unit": "ng·h/mL"}, {"measurement": "Cmax", "setting": "[1]; [2]", "result": 1.70, "unit": "ng/mL"}, {"measurement": "T1/2", "setting": "[1]; [2]", "result": 3.08, "unit": "h"}, {"measurement": "Tmax", "setting": "[1]; [2]", "result": 1.75, "unit": "h"}, {"measurement": "AUC0-t", "setting": "[1]; [3]", "result": 10.00, "unit": "ng·h/mL"}, {"measurement": "Cmax", "setting": "[1]; [3]", "result": 2.30, "unit": "ng/mL"}, {"measurement": "T1/2", "setting": "[1]; [3]", "result": 2.48, "unit": "h"}, {"measurement": "Tmax", "setting": "[1]; [3]", "result": 1.67, "unit": "h"}, {"measurement": "AUC0-t", "setting": "[1]; [4]", "result": 19.30, "unit": "ng·h/mL"}, {"measurement": "Cmax", "setting": "[1]; [4]", "result": 5.00, "unit": "ng/mL"}, {"measurement": "T1/2", "setting": "[1]; [4]", "result": 2.00, "unit": "h"}, {"measurement": "Tmax", "setting": "[1]; [4]", "result": 1.33, "unit": "h"}, {"measurement": "AUC0-t", "setting": "[1]; [5]", "result": 27.40, "unit": "ng·h/mL"}, {"measurement": "Cmax", "setting": "[1]; [5]", "result": 6.80, "unit": "ng/mL"}, {"measurement": "T1/2", "setting": "[1]; [5]", "result": 2.09, "unit": "h"}, {"measurement": "Tmax", "setting": "[1]; [5]", "result": 1.75, "unit": "h"}, {"measurement": "AUC0-t", "setting": "[1]; [6]", "result": 32.80, "unit": "ng·h/mL"}, {"measurement": "Cmax", "setting": "[1]; [6]", "result": 8.50, "unit": "ng/mL"}, {"measurement": "T1/2", "setting": "[1]; [6]", "result": 1.87, "unit": "h"}, {"measurement": "Tmax", "setting": "[1]; [6]", "result": 1.44, "unit": "h"}, {"measurement": "AUC0-t", "setting": "[1]; [7]", "result": 29.20, "unit": "ng·h/mL"}, {"measurement": "Cmax", "setting": "[1]; [7]", "result": 10.10, "unit": "ng/mL"}, {"measurement": "T1/2", "setting": "[1]; [7]", "result": 2.99, "unit": "h"}, {"measurement": "Tmax", "setting": "[1]; [7]", "result": 1.67, "unit": "h"}, {"measurement": "AUC0-t", "setting": "[1]; [8]", "result": 56.60, "unit": "ng·h/mL"}, {"measurement": "Cmax", "setting": "[1]; [8]", "result": 13.10, "unit": "ng/mL"}, {"measurement": "T1/2", "setting": "[1]; [8]", "result": 2.41, "unit": "h"}, {"measurement": "Tmax", "setting": "[1]; [8]", "result": 1.53, "unit": "h"}, {"measurement": "AUC0-t", "setting": "[1]; [9]", "result": 45.60, "unit": "ng·h/mL"}, {"measurement": "Cmax", "setting": "[1]; [9]", "result": 11.20, "unit": "ng/mL"}, {"measurement": "T1/2", "setting": "[1]; [9]", "result": 2.46, "unit": "h"}, {"measurement": "Tmax", "setting": "[1]; [9]", "result": 1.75, "unit": "h"}, {"measurement": "accumulation of exposure (Cmax and AUC)", "setting": "[1]; between the two doses (Cycle 1 Day1 and Cycle 1 Day8)", "result": "no accumulation of exposure"}]}
{"smiles": "CC(=O)Nc1ccc(O)cc1", "note": "[Paracetamol]", "values": [{"measurement": "AKR1C3 inhibitory activity", "setting": "AKR1C3", "result": "have AKR1C3 inhibitory activity"}]}
{"smiles": "O=C([O-])c1ccccc1O.[Na+]", "note": "[Sodium salicylate]", "values": [{"measurement": "AKR1C3 inhibitory activity", "setting": "AKR1C3", "result": "have AKR1C3 inhibitory activity"}]}
{"smiles": "CC1=C(CC(=O)O)c2cc(F)ccc2/C1=C\\c1ccc([S+](C)[O-])cc1", "note": "(stereo not drawn) [Sulindac]", "values": [{"measurement": "AKR1C3 inhibitory activity", "setting": "AKR1C3", "result": "have AKR1C3 inhibitory activity"}]}
{"smiles": "Cc1ccc(C(=O)c2ccc(CC(=O)O)n2C)cc1", "note": "[Tolmetin]", "values": [{"measurement": "AKR1C3 inhibitory activity", "setting": "AKR1C3", "result": "have AKR1C3 inhibitory activity"}]}
{"smiles": "Cc1cc(CC(=O)O)n(C)c1C(=O)c1ccc(Cl)cc1", "note": "[Zomepirac]", "values": [{"measurement": "AKR1C3 inhibitory activity", "setting": "AKR1C3", "result": "have AKR1C3 inhibitory activity"}]}
